Test results published in patent publication US12551474B2, “Use of pridopidine for the treatment of fragile X syndrome” (PRILENIA NEUROTHERAPEUTICS LTD., priority 2017, dated 2026).
Like-named read-outs stand apart in the source and are kept apart here.

Columns and labels:
human FXS neurons = settings: 8-day period, vs DMSO
Source text: Control cells used were a human Embryonic Stem (ES) cell line.
FIG. 2A upper panels show MAP2/Tuj-1/DNA immunostaining; lower panels show GABA/NeuN/DNA immunostaining.
Neurite growth is a surrogate of neuronal development and maturation.
Open squares show data from DMSO treated FXS neurons.

FXS neurons = test: neurite outgrowth in FXS neurons with genetic or pharmacological inactivation of S1R; type: cell-based, human
Source text: To investigate whether the rescue of neurite outgrowth deficits in FXS neurons following pridopidine treatment is mediated via sigma-1 receptor (S1R), virally-delivered Cas9 was used to target and inactivate S1R in FXS NPC prior to neuronal differentiation. Effective inactivation of S1R gene and loss of its protein product was confirmed by western blot (FIG. 6A).
The effect of a pharmacological inhibitor of S1R on pridopidine-mediated neurite outgrowth improvements in FXS neurons was further tested.

[1] = test system: human patients afflicted with a FXS related disorder; settings: periodic (daily or twice daily) oral administration, pediatric or adult patients
Protocol: The human patients are pediatric patients or adult patients.
A pridopidine composition as described herein is administered orally to a subject suffering from a FXS related disorder.

[2] = test system: human patients afflicted with FXS; settings: periodic (daily or twice daily) oral administration, pediatric or adult patients
rat striatum = settings: transcriptomic analysis; cited from earlier work
[3] = test system: Q175 knock-in (Q175 KI) HD mouse model; settings: cited from earlier work
neuroblastoma cell line = settings: S1R-dependent; cited from earlier work

SMILES	neurite growth in FXS neurons (human FXS neurons; 1 uM pridopidine)	neurite growth in FXS neurons (human FXS neurons; 5 uM pridopidine)	neurite outgrowth in FXS neurons (FXS neurons; 100 nM pridopidine for 24 hrs)	improvement in neurite outgrowth in FXS neurons in which S1R was inactivated (S1RKO) (FXS neurons; 100 nM pridopidine for 24 hrs, S1RKO (Cas9))	treatment of a FXS related disorder [1]	treatment of FXS [2]	expression of BDNF, D1R, GR and Akt/PI3K pathways (rat striatum)	gene expression profile versus HD disease gene expression profile [3]	secretion of BDNF (neuroblastoma cell line)	effect on pridopidine-mediated neurite outgrowth improvement in FXS neurons (FXS neurons; co-administration of NE-100 (1 μM) with pridopidine)
CCCN1CCC(c2cccc(S(C)(=O)=O)c2)CC1 [pridopidine, 4-[3-(methylsulfonyl)phenyl]-1-propyl-piperidine]	significant improvement in neurite growth	significant improvement in neurite growth	improvement in neurite outgrowth	abolished	effective	effective	activates expression	reversed pattern	enhances secretion	–
CCCN(CCC)CCc1ccc(OC)c(OCCc2ccccc2)c1 [NE-100, reference compound]	–	–	–	–	–	–	–	–	–	blocked the effect of pridopidine
